From ChEMBL document CHEMBL1145828, “Development of natural product-derived receptor tyrosine kinase inhibitors based on conservation of protein domain fold” (J Med Chem, 2003)
pIC50: −log10 of the molar value. Active and inactive are the calls of the source. The calls are words filed in the database; no cut-off is given here.

How the values were obtained:
[1] = biological target: T1, Insulin-like growth factor 1 receptor (Homo sapiens, UniProt P08069); assay: Inhibition of Insulin-like growth factor I receptor (No effect)
T1 sequence (P08069 31-736 limits assumed): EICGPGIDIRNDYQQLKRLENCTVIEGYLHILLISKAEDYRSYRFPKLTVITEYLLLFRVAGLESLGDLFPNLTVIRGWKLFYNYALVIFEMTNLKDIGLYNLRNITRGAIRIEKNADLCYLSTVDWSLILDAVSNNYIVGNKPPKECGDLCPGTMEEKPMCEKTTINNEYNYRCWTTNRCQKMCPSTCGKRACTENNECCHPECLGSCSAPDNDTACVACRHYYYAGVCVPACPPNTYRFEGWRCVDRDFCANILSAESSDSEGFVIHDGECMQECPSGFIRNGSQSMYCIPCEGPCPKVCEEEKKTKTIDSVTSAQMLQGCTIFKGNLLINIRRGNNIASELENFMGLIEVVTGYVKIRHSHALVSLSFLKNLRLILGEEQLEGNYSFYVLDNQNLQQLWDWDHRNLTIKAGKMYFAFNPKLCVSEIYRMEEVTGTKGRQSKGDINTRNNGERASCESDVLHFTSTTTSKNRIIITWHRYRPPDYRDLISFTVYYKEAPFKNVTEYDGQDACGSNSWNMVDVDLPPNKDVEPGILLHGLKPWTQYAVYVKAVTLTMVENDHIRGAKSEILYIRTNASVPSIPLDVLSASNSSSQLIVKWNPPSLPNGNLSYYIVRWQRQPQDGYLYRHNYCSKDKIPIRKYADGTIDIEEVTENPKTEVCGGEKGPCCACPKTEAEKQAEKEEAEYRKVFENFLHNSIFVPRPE
T1 sequence (P08069 741-1367 limits assumed): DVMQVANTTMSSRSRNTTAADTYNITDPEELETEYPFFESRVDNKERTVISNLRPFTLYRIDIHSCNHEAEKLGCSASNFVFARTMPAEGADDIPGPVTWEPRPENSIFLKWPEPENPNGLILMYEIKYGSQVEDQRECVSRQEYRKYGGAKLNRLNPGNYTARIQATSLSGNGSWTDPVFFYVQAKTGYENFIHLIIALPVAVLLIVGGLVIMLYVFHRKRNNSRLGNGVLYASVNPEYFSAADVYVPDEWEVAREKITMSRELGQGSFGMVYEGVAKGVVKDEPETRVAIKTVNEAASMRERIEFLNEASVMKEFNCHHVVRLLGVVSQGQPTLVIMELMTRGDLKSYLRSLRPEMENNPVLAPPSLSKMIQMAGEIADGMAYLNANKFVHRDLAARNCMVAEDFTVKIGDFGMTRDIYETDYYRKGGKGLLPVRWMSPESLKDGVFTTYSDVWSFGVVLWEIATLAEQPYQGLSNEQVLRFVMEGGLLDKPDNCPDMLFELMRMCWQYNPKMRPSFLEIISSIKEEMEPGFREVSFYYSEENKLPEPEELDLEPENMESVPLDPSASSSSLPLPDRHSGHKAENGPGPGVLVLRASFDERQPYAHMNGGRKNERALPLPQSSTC

[2] = biological target: T2, Receptor tyrosine-protein kinase erbB-2 (Homo sapiens, UniProt P04626); assay: Inhibition of ERBB2 receptor kinase
T2 sequence (P04626 whole entry): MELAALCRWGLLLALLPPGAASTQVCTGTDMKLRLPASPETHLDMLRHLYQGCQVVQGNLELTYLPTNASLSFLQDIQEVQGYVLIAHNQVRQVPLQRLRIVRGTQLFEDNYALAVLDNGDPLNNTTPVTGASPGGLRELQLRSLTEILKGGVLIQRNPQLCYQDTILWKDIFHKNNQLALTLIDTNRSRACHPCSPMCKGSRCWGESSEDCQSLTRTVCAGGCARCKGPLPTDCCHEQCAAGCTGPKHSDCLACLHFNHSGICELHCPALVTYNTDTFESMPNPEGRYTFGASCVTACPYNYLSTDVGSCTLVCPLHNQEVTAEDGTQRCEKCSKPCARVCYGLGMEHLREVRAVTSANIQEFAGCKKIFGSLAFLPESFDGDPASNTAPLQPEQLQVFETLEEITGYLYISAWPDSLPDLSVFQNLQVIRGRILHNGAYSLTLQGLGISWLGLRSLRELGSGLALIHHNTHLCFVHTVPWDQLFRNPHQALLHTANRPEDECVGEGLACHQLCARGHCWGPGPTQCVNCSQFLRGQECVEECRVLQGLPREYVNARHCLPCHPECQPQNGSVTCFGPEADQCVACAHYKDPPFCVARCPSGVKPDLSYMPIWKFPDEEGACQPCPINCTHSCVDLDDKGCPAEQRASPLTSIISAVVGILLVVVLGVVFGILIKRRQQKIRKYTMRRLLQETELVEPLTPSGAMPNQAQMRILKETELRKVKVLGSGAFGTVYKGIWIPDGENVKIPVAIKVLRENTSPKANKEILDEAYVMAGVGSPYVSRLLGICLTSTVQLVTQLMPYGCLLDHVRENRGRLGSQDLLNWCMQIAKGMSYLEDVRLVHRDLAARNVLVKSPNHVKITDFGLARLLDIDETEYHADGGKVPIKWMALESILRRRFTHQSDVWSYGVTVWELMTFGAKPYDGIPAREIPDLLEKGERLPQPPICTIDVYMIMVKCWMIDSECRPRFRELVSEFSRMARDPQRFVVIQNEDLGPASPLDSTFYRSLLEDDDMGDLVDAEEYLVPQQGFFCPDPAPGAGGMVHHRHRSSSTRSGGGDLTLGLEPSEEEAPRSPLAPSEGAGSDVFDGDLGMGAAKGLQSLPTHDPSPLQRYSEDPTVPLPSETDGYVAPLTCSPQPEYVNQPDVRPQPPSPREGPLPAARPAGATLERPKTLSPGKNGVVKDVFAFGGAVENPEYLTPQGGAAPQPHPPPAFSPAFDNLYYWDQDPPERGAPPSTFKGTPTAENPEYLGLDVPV

[3] = biological target: T3, Vascular endothelial growth factor receptor 3 (Homo sapiens, UniProt P35916); assay: Inhibition of Vascular endothelial growth factor receptor 3 (No effect)
[4] = biological target: T4, Vascular endothelial growth factor receptor 2 (Homo sapiens, UniProt P35968); assay: Inhibition of Vascular endothelial growth factor receptor 2 (No effect)
[5] = biological target: T5, Angiopoietin-1 receptor (Homo sapiens, UniProt Q02763); assay: Inhibition of Tyrosine protein kinase receptor TIE-2 (No effect)
T5 sequence (Q02763 whole entry): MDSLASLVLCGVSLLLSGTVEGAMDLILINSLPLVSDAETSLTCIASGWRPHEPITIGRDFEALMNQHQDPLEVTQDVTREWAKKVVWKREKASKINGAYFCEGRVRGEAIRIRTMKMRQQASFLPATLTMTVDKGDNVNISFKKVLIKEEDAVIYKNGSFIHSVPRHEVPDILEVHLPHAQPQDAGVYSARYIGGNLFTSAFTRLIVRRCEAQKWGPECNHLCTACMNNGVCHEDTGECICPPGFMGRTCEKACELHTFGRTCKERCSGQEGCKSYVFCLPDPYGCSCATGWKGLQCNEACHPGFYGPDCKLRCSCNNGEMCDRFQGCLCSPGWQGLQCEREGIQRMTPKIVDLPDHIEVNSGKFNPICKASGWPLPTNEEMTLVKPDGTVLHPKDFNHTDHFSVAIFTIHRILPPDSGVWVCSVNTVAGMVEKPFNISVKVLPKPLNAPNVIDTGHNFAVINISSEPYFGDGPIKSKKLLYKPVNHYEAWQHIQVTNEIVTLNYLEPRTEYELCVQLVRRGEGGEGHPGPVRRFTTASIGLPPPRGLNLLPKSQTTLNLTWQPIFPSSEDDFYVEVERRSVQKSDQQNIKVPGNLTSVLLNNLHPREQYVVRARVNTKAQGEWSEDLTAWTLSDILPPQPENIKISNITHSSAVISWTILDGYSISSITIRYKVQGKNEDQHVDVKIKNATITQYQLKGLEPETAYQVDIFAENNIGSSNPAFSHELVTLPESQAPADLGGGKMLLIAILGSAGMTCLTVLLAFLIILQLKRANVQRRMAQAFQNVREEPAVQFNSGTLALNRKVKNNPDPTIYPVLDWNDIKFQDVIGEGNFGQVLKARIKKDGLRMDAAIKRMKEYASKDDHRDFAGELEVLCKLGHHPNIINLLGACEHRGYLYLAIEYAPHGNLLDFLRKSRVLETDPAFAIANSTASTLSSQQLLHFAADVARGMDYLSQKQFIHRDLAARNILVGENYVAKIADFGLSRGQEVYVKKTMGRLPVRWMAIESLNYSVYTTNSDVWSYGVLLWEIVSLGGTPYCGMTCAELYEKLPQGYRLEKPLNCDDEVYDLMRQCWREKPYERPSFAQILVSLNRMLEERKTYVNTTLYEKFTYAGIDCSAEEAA

[6] = biological target: T6, Epidermal growth factor receptor (Homo sapiens, UniProt P00533); assay: Inhibition of Epidermal growth factor receptor (No effect)
T6 sequence (P00533 whole entry): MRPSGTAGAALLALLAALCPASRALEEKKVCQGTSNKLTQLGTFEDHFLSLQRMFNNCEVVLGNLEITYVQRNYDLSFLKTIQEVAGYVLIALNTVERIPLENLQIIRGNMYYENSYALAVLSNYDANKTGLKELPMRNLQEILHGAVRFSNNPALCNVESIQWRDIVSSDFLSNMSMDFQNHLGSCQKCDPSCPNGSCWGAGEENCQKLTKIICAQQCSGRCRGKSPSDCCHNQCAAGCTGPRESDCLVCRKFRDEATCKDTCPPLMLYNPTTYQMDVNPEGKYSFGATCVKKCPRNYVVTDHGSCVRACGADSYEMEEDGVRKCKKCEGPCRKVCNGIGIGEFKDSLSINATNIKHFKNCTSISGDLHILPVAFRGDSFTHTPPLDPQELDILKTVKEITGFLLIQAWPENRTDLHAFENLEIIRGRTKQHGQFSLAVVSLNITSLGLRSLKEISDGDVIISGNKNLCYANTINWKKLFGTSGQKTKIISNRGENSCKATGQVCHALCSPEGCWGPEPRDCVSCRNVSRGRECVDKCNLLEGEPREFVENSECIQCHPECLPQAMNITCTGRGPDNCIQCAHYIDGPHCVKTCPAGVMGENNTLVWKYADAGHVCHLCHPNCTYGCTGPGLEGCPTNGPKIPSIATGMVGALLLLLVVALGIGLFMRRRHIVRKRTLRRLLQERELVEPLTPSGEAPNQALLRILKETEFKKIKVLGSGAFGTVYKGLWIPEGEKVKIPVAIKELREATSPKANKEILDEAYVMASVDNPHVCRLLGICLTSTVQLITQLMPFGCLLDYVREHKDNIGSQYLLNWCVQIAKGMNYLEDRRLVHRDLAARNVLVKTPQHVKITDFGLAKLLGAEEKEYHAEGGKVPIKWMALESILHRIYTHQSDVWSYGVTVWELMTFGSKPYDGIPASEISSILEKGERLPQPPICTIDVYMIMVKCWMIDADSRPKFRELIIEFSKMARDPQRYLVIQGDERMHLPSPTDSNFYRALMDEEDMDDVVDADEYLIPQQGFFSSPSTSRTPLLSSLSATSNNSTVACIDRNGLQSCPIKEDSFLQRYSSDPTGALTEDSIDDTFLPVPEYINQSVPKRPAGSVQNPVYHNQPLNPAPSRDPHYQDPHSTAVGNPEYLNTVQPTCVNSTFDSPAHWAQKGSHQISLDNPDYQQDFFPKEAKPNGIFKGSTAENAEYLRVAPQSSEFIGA

[7] = biological target: T2, Receptor tyrosine-protein kinase erbB-2; assay: Inhibition of ERBB2 receptor kinase (No effect)
[8] = biological target: T4, Vascular endothelial growth factor receptor 2; assay: Inhibition of Vascular endothelial growth factor receptor 2
[9] = biological target: T6, Epidermal growth factor receptor; assay: Inhibition of Epidermal growth factor receptor
[10] = biological target: T5, Angiopoietin-1 receptor; assay: Inhibition of Tyrosine protein kinase receptor TIE-2
[11] = biological target: T1, Insulin-like growth factor 1 receptor; assay: Inhibition of Insulin-like growth factor I receptor
[12] = biological target: T3, Vascular endothelial growth factor receptor 3; assay: Inhibition of Vascular endothelial growth factor receptor 3

SMILES | NI [1] | pIC50 [2] | NI [3] | NI [4] | NI [5] | NI [6] | NI [7] | pIC50 [8] | pIC50 [9] | pIC50 [10] | pIC50 [11] | pIC50 [12]
COC1=CC(=O)C=CC1=O | inactive | 4.54 | inactive | inactive | inactive | inactive |  |  |  |  |  | 
CC1=CCC[C@H]2[C@](C)(CC3=C(O)C(O)=C/C(=N\[C@@H](CO)C(=O)O)C3=O)[C@H](C)CC[C@]12C | inactive |  | inactive |  | inactive | inactive | inactive | 4.70 |  |  |  | 
COC1=CC(=O)C=C(/C=C2\CCCC3CCCCC23)C1=O (configuration not stated) | inactive | < 4.00 | inactive | inactive |  |  |  |  | < 4.00 | 4.85 |  | 
COC1=CC(=O)C(N[C@@H](CO)C(=O)O)=CC1=O |  | < 4.00 | inactive |  | inactive | inactive |  | 5.10 |  |  | < 4.30 | 
CC(O)C(/N=C1\C(O)=CC(=O)C(O)=C1CC1CCCC2CCCCC21)C(=O)O (configuration not stated) |  |  | inactive |  |  |  | inactive | < 4.30 | < 4.00 | 5.05 | 6.30 | 
COC1=CC(=O)C=C(Cc2ccccc2)C1=O | inactive |  | inactive | inactive |  | inactive | inactive |  |  | 4.74 |  | 
CC(O)C(/N=C1C=C(O)/C(=N\C(C(=O)O)C(C)O)C=C/1O)C(=O)O (configuration not stated) |  |  |  | inactive |  |  | inactive |  | 4.36 | 5.30 | 5.22 | 5.52
